This is an account of results in patent publication US20130267516A1, “SUBSTITUTED CYCLOPENTYL-AZINES AS CASR-ACTIVE COMPOUNDS” (LEO PHARMA A/S, priority 2010, published 2013).

The structures appear in SMILES notation. Some results are limits rather than exact numbers.

This assay concerns the target T1, human CaSR (Homo sapiens, UniProt P41180).
T1 construct: The ORF coding for the human CaSR (genebank: NM_000388)
T1 sequence (P41180 20-1078): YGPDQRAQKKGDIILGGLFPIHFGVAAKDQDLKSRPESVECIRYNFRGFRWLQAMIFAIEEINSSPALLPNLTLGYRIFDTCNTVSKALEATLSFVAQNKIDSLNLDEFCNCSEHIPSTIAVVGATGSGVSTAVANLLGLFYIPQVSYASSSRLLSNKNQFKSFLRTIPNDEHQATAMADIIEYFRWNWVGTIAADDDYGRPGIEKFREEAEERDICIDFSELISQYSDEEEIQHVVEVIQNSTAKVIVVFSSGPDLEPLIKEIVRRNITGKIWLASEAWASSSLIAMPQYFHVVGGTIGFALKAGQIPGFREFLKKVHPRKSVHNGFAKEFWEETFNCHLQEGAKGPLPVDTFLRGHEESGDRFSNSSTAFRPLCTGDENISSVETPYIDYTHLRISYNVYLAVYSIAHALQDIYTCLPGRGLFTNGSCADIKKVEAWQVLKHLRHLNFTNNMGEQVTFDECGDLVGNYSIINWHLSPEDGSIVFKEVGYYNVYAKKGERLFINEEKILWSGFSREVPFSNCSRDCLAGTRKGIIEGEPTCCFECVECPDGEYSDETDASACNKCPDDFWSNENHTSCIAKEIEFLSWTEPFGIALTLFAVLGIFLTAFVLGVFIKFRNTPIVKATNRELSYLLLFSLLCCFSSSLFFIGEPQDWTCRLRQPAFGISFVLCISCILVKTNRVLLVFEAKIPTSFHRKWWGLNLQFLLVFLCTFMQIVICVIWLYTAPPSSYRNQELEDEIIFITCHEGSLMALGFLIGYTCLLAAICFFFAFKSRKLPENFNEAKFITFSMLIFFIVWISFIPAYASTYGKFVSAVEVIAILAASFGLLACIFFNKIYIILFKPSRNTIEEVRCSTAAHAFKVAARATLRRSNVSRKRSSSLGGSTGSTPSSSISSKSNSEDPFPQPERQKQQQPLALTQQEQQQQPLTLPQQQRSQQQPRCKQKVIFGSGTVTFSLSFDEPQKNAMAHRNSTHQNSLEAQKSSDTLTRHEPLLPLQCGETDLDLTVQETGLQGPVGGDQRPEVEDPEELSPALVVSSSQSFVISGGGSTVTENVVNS
In words: Functional whole cell assay (modulation of human CaSR), IP1 accumulation in CHO-K1 cells. Format: cell-based. The note with it: CHO-K1 cells stably expressing human CaSR, final Ca2+ 1.9 mM, IP1 readout; concentration giving 50% of maximum agonistic response. An excerpt:
The assay investigates a compound's functional ability to act as a biological positive modulator on the human CaSR. Activation of the receptor expressed on CHO-K1 cells is detected through the G alpha q pathway, the activation of phospholipase C and the accumulation of intracellular inositol phosphate (IP) as described earlier [Sandrine Ferry, Bruno Chatel, Robert H. Dodd, Christine Lair, Danielle Gully, Jean-Pierre Maffrand, and Martial Ruat. Effects of Divalent Cations and of a Calcimimetic on Adrenocorticotropic Hormone Release in Pituitary Tumor Cells. Biochemical and biophysical research Communications 238, 866-873 (1997)]. The human CaSR is stably expressed on a CHO-K1 cell clone, stimulated with a basal level of calcium and challenged with the tested compound. The level of IP1 is determined using the IP-One Terbium htrf kit (Cisbio, France). CHO-K1 cells not transfected with the CaSR fail to elicit an IP1 response upon calcium and/or compound stimulation.
The ORF coding for the human CaSR (genebank: NM_000388) was acquired from Invitrogen Corp, USA and subsequently cloned into the mammalian expression vector pCDA3.1.
CHO-K1 cells were transfected using Lipofectamine according to manufacturer's protocol (400.000 cells/well were seeded in a 6-well plate and transfected after 24 hours using 2 μg DNA and 5 μl lipofectamine). After another 24 hours the cells were detached, seeded and subjected to 1 mg/ml of G-418. Following 7 days growth single clones were picked, the CaSR expression evaluated using the 5C10 antibody against CaSR, the clones with the highest expression were selected and tested for functional response. The preferred clone was cultured according to standard procedures described in ATCC (American Type Culture Collection) protocols for CHO-K1 with the addition of 500 μg/ml G-418.
On the assay day, cells were thawed, harvested and resuspended to 4*10^6 cells/ml in stimulation buffer (containing: Hepes 10 mM, MgCl2 0.5 mM, KCl 4.2 mM, NaCl 146 mM, glucose 5.5 mM, LiCl 50 mM, BSA 0.5% at pH 7.4). Ten μl cell solution was pipetted into wells of a white 384-well plate (Perkin Elmer Optiplate) containing 2 μl compound diluted in assay buffer (containing: Hepes 10 mM, MgCl2 0.5 mM, KCl 4.2 mM, NaCl 146 mM, glucose 5.5 mM, LiCl 50 mM, CaCl2 11.4 mM at pH 7.4), resulting in a final Ca^2+ concentration of 1.9 mM. After compound stimulation for 1 hour at 37° C. and 15 min at room temperature, 10 ul of IP-One assay detection reagent (prepared as described by the IP-One assay kit manufacturer) was added and the plate was incubated for another 1 hour at room temperature. Finally the plate was read using a Perkin Elmer EnVision, according to the protocol supplied by the IP-One assay kit manufacturer. The FRET ratio was calculated by dividing the 665 nm emission signal with that of the 615 nm.
The molar concentration of a compound that produces 50% of the maximum agonistic response (the […] value) is calculated according to the equation “General sigmoidal curve with Hill slope, a to d” (Equation 1). This model describes a sigmoidal curve with an adjustable baseline. The equation can be used to fit curves where response is either increasing or decreasing with respect to the independent variable, X.
y=(a−d)/(1+(x/c)̂b)+d Equation 1.
x=concentration of tested compound y=response (%) a=min response as compound concentration approaches 0 d=max response as concentration of tested compound is increasing c=IC50 for the curve b=Hill coefficient or curve slope

Compound `COc1cc([C@@H](C)N[C@H]2CC[C@@H](c3cnc(N4CCN(C(C)=O)CC4)nc3)C2)ccc1F.O=CO` [Compound 127, 1-[4-[5-[(1R,3S)-3-[[(1R)-1-(4-Fluoro-3-methoxy-phenyl)ethyl]amino]cyclopentyl]pyrimidin-2-yl]piperazin-1-yl]ethanone] registered an EC50 of 200 to 1000 nM.

As to `COc1cc([C@@H](C)N[C@H]2CC[C@@H](c3ccc(NC4CCNCC4)nc3)C2)ccc1F` [Compound 107, 5-[(1R,3S)-3-[[(1R)-1-(4-Fluoro-3-methoxy-phenyl)ethyl]amino]cyclopentyl]-N-(4-piperidyl)pyridin-2-amine], the EC50 was < 200 nM.

For `COc1cc([C@@H](C)N[C@H]2CC[C@@H](c3cnc(N4CCNC(=O)C4)nc3)C2)ccc1F` [Compound 126, 4-[5-[(1R,3S)-3-[[(1R)-1-(4-Fluoro-3-methoxy-phenyl)ethyl]amino]cyclopentyl]pyrimidin-2-yl]piperazin-2-one], the EC50 is < 200 nM.

Take `COc1cc([C@@H](C)N[C@H]2CC[C@@H](c3ccc(NCCS(N)(=O)=O)nc3)C2)ccc1F` [Compound 113, 2-[[5-[(1R,3S)-3-[[(1R)-1-(4-Fluoro-3-methoxyphenyl)ethyl]amino]cyclopentyl]-2-pyridyl]amino]ethanesulfonamide]: the EC50 is < 200 nM.

`C[C@@H](N[C@H]1CC[C@@H](c2ccc(NCCNCCO)nc2)C1)c1cccc2ccccc12.O=CO.O=CO.O=CO` [Compound 101, 2-[2-[[5-[(1R,3S)-3-[[(1R)-1-(1-Naphthyl)ethyl]amino]cyclopentyl]-2-pyridyl]amino]ethylamino]ethanol]: the concentration for a half-maximal effect (EC50) is < 200 nM.

In the case of `COc1cc([C@@H](C)N[C@H]2CC[C@@H](c3ccc(N4CCNC(=O)C4)nc3)C2)ccc1F` [Compound 109, 4-[5-[(1R,3S)-3-[[(1R)-1-(4-Fluoro-3-methoxy-phenyl)ethyl]amino]cyclopentyl]-2-pyridyl]piperazin-2-one], the EC50 was < 200 nM.

In turn, `COc1cc([C@@H](C)N[C@H]2CC[C@@H](c3ccc(NCC(O)CO)nc3)C2)ccc1F` (stereo partly drawn) [Compound 115, 3-[[5-[(1R,3S)-3-[[(1R)-1-(4-Fluoro-3-methoxyphenyl)ethyl]amino]cyclopentyl]-2-pyridyl]amino]propane-1,2-diol] yielded an EC50 of 200 to 1000 nM.

Consider `COc1cc([C@@H](C)N[C@H]2CC[C@@H](c3ccc(N4CCN(C(C)=O)CC4)nc3)C2)ccc1F` [Compound 116, 1-[4-[5-[(1R,3S)-3-[[(1R)-1-(4-Fluoro-3-methoxyphenyl)ethyl]amino]cyclopentyl]-2-pyridyl]piperazin-1-yl]ethanone], for which the EC50 was < 200 nM.
